One data set has as its system HIV-1 strain IIIB. Nature of the data set: MTT assay, HIV-1 strain IIIB in MT-4 cells. In kind it is cell-based. The conditions noted are these: Human immunodeficiency virus 1, MT4; HIV-1IIIB in MT-4 cells; read-out: EC50 HIV-1IIIB (inhibition of cytopathicity). (In general: Formazan colour is commonly taken as a measure of viable cells.)
Data set [1] can be described thus: Cytotoxicity in mock-infected CEM-SS cells. Type of data set: cell-based. Particulars: human, uninfected (mock-infected) CEM-SS cells. The procedure:
(§1) In Vitro Antiviral Assays. Evaluation of the antiviral activity of compounds against HIV-1RF infection in CEM-SS cells was performed using the MTS cytoprotection assay as previously described. See, Rice, W. G.; Bader, J. P. Discovery and in Vitro Development of AIDS Antiviral Drugs as Biopharmaceuticals. Adv. Pharmacol. (San Diego) 1995, 6, 389-438, the disclosure of which is incorporated herein by reference. […] See, Pauwels, R.; Balzarini, J.; Baba, M.; Snoeck, R.; Schols, […].; De […]. Rapid and Automated Tetrazolium-based Colorimetric Assay for Detection of Anti-HIV Compounds. J. Virol. Methods 1988, 20, 309-321, the disclosure of which is incorporated herein by reference.

For a further data set, the system named is HIV-2 strain (ROD). Kind of data set: MTT assay, HIV-2 strain (ROD) in MT-4 cells. The conditions noted are these: Human immunodeficiency virus 2, MT4; HIV-2ROD in MT-4 cells; read-out: EC50 HIV-2-ROD (inhibition of cytopathicity). In kind it is cell-based.
The nature of data set [2]: Cytotoxicity in mock-infected MT-4 cells. The conditions noted are these: human, uninfected (mock-infected) MT-4 cells. Type of data set: cell-based.
The target in data set [3] is T1, recombinant HIV-1 RT enzyme (p66/51 dimer) (Human immunodeficiency virus type 1 group M subtype B, UniProt P04585).
T1 construct: recombinant HIV-1 RT enzyme (p66/51 dimer)
Kind of data set: RT inhibition assay, incorporation of [32P]GTP into poly(rC)/oligo(dG). In kind it is biochemical. The procedure:
RT Inhibition Assay. Analysis of the effects of the compounds on recombinant HIV-1 RT enzyme (p66/51 dimer) was performed as previously described. See, Buckheit, R. W. J.; Fliakas-Boltz, V.; Decker, W. D.; Robertson, J. L.; Stup, T. L.; Pyle, C. […] Antiviral Res. 1995, 26, 117-132, the disclosure of which is incorporated herein by reference. Briefly, inhibition of purified recombinant reverse transcriptase enzyme was measured by the incorporation of [^32P]GTP into poly(rC)/oligo(dG) (rCdG) homopolymer template primers.

The nature of data set [4]: In vitro hydrolytic stability study in rat plasma. Type of data set: in vitro ADME. The conditions noted are these: rat plasma in vitro, half-life. The procedure: NMR spectra were obtained at 300 MHz (^1H) and 75 MHz (^13C) in CDCl3 using CHCl3 as internal standard. Flash chromatography was performed with 230-400 mesh silica gel. […] Melting points are uncorrected. Unless otherwise stated, chemicals and solvents were of reagent grade and used as obtained from commercial sources without further purification. Tetrahydrofuran (THF) was freshly distilled from sodium/benzophenone ketyl radical prior to use. Dichloromethane was freshly distilled from calcium hydride prior to use. Lyophilized rat plasma (lot 052K7609) was obtained from Sigma Chemical Co., St. Louis, Mo. All yields given refer to isolated yields.
In vitro Hydrolytic Stability Study in Rat Plasma. […] See, Silvestri, M. A.; Nagarajan, M.; De Clercq, E.; Pannecouque, C.; Cushman, M. Design, Synthesis, Anti-HIV Activities, and Metabolic Stabilities of Alkenyldiarylmethane (ADAM) Non-nucleoside Reverse Transcriptase Inhibitors. J. Med. Chem. 2004, 47, 3149-3162, the disclosure of which is incorporated herein by reference.

For another data set, the system named is HIV-1RF. Kind of data set: MTS cytoprotection assay, HIV-1RF infection in CEM-SS cells. In kind it is cell-based. The conditions noted are these: Human immunodeficiency virus 1; HIV-1RF in CEM-SS cells; read-out: EC50 HIV-1RF (inhibition of cytopathicity). The procedure:
In Vitro Antiviral Assays. Evaluation of the antiviral activity of compounds against HIV-1RF infection in CEM-SS cells was performed using the MTS cytoprotection assay as previously described. See, Rice, W. G.; Bader, J. P. Discovery and in Vitro Development of AIDS Antiviral Drugs as Biopharmaceuticals. Adv. Pharmacol. (San Diego) 1995, 6, 389-438, the disclosure of which is incorporated herein by reference. […] See, Pauwels, R.; Balzarini, J.; Baba, M.; Snoeck, R.; Schols, D.; Herdewijn, P.; Desmyter, J.; De Clercq, E. Rapid and Automated Tetrazolium-based Colorimetric Assay for Detection of Anti-HIV Compounds. J. Virol. Methods 1988, 20, 309-321, the disclosure of which is incorporated herein by reference.

Another data set deals with CEM-SS cells. Kind of data set: Cytotoxicity in mock-infected CEM-SS cells. Type of data set: cell-based. Particulars: read-out: CC50 CEM-SS Cells (50% cytotoxic concentration). The procedure: as §1
A further data set concerns MT-4 cells. Kind of data set: Cytotoxicity in mock-infected MT-4 cells. Type of data set: cell-based. Particulars: read-out: CC50 MT-4 Cells (50% cytotoxic concentration).

Where two headings read alike, the source gives them in different places.

Turning to `COC(=O)CCC/C=C(\c1cc(F)cc(C(F)(F)F)c1)c1cc(C)c2oc(=O)n(C)c2c1` [Compound 63, (Z)-6-(3,7-Dimethyl-2-oxo-2,3-dihydrobenzoxazol-5-yl)-6-(3-fluoro-5-trifluoromethylphenyl)-hex-5-enoic Acid Methyl Ester], the figures for the EC50 in the data set on HIV-1 strain IIIB, in the data set with HIV-2 strain (ROD) and in the data set with HIV-1RF were 4.36 µM, > 60 µM and > 100 µM, respectively. The CC50 in [1] was 15 µM; in [2] it was 51 µM. In data set [3], the half-maximal inhibitory concentration (IC50) (usually the point on the concentration scale where inhibition reaches its midpoint) is > 100 µM. In data set [4], the “Rat Plasma tp1/2 (min ± SD)” value was found to be 3.06 ± 0.32 min.
Take `COC(=O)CCC/C=C(/c1cc(C)c2on(C)c(=O)c2c1)c1cc(C)c2oc(=O)n(C)c2c1` [Compound 65, (Z)-6-(2,7-Dimethyl-3-oxo-2,3-dihydro-benzo[d]isoxazol-5-yl)-6-(3,7-dimethyl-2-oxo-2,3-dihydro-benzoxazol-5-yl)-hex-5-enoic Acid Methyl Ester]: the concentration for a half-maximal effect (EC50) (commonly the concentration at which the effect is half-maximal) with HIV-1 strain IIIB was 4.48 µM; with HIV-2 strain (ROD) it was > 36.5 µM; in the data set on HIV-1RF, 1.79 µM. Also, the CC50 in data set [1] was determined as 11.1 µM; in [2], 36.5 µM. The IC50 in data set [3] is 49.2 µM. Moreover, the “Rat Plasma tp1/2 (min ± SD)” value in data set [4] was determined as 0.46 ± 0.03 min.
`COC(=O)CCC/C=C(/c1cc(Cl)c(OC)c(C(=O)OC)c1)c1cc(C)c2oc(=O)n(C)c2c1` [Compound 61, (E)-3-Chloro-5-[1-(3,7-dimethyl-2-oxo-2,3-dihydro-benzoxazol-5-yl)-5-methoxycarbonyl-pent-1-enyl]-2-methoxybenzoic Acid Methyl Ester]: the concentration giving a half-maximal response (EC50) in the data set with HIV-1 strain IIIB was 0.25 µM; in the data set on HIV-2 strain (ROD) it was > 29.7 µM; with HIV-1RF it was 0.53 µM. Moreover, the CC50 in data set [1] is 9.47 µM; in data set [2] it was 29.7 µM. Further, in data set [3], the concentration for half-maximal inhibition (IC50) stood at 0.93 µM. Further, the “Rat Plasma tp1/2 (min ± SD)” value in data set [4] is given as 0.19 ± 0.01 min.
Regarding `COC(=O)c1cc(/C(=C/CCN2CCOC2=O)c2ccc(OC)c(OC)c2)cc(C)c1OC` [Compound 4, (Z)-5-[1-(3,4-Dimethoxyphenyl)-4-(2-oxo-oxazolidin-3-yl)-but-1-enyl]-2-methoxy-3-methyl-benzoic Acid Methyl Ester], the half-maximal effective concentration (EC50) in the data set on HIV-1 strain IIIB was > 33.8 µM; in the data set on HIV-2 strain (ROD), > 35.4 µM; in the data set on HIV-1RF, > 100 µM. For the same compound, the CC50 in data set [1] came to 0.6 µM; in [2] it was 83.1 µM. In addition, in data set [3], the 50% inhibitory concentration (IC50) worked out at 0.9 µM. In [4], the “Rat Plasma tp1/2 (min ± SD)” value amounted to 0.79 ± 0.10 min.
`COC(=O)CCCC=C(c1cc(C)c(OC)c(C(=O)OC)c1)c1cc(C)c(OC)c(C(=O)OC)c1` [Compound 1, Methyl 4′,4″-Dimethoxy-3′,3″-di(methoxycarbonyl)-5′,5″-dimethyl-6,6-diphenyl-5-hexenoate]: the concentration giving a half-maximal response (EC50) worked out at 1 µM in the data set on HIV-1 strain IIIB and 0.25 µM with HIV-1RF. The results for the CC50 in the data set with CEM-SS cells and with MT-4 cells were 6 µM and 6.1 µM, respectively. Moreover, the half-maximal inhibitory concentration (IC50) in data set [3] (poly(rC)•oligo(dG) as the template primer, read-out: IC50 (inhibitory activity vs HIV-1 reverse transcriptase)) stood at 1 µM. The “Rat Plasma tp1/2 (min ± SD)” value in data set [4] worked out at 0.76 ± 0.04 min.
Take `COC(=O)CCC/C=C(\c1cccc(C#N)c1)c1cc(C)c2onc(OC)c2c1` [Compound 20, (E)-6-(3-Cyanophenyl)-6-(3-methoxy-7-methylbenzo[d]isoxazol-5-yl)-hex-5-enoic Acid Methyl Ester]: the half-maximal effective concentration (EC50) was > 2.05 µM in the data set on HIV-1 strain IIIB, > 5.63 µM in the data set on HIV-2 strain (ROD) and > 100 µM with HIV-1RF. The CC50 stood at 0.8 µM in data set [1] and 4.69 µM in data set [2]. For the same compound, the concentration for half-maximal inhibition (IC50) in data set [3] turned out to be 5.7 µM. In addition, the “Rat Plasma tp1/2 (min ± SD)” value in [4] amounted to 1.16 ± 0.08 min.
Turning to `COC(=O)CCC/C=C(/c1ccc(OC)c(C(=O)OC)c1)c1cc(C)c2oc(=O)n(C)c2c1` [Compound 62, (Z)-5-[1-(3,7-Dimethyl-2-oxo-2,3-dihydrobenzoxazol-5-yl)-5-methoxycarbonyl-pent-1-enyl]-2-methoxy-benzoic Acid Methyl Ester], the melting point – broadly, the temperature of the solid-liquid transition – was 134 to 135 °C. Besides, in the data set with HIV-1 strain IIIB, the EC50 is 4.15 µM. In data set [1], the CC50 is > 13.5 µM. Also, the half-maximal effective concentration (EC50) in the data set with HIV-2 strain (ROD) was > 115 µM. Moreover, the CC50 in [2] came to 115 µM. Besides, the IC50 in data set [3] was found to be 0.99 µM. The “Rat Plasma tp1/2 (min ± SD)” value in [4] was determined as 0.34 ± 0.15 min. Also, the EC50 in the data set on HIV-1RF was determined as 3.08 µM.
For the compound `COC(=O)CCC/C=C(\c1cc(C)c(OC)c(C(=O)OC)c1)c1cc(C)c2oc(=O)n(C)c2c1` [Compound 64, (E)-5-[1-(3,7-Dimethyl-2-oxo-2,3-dihydro-benzoxazol-5-yl)-5-methoxycarbonyl-pent-1-enyl]-2-methoxy-3-methylbenzoic Acid Methyl Ester], the EC50 in the data set with HIV-1 strain IIIB was 0.09 µM; in the data set with HIV-2 strain (ROD), > 16.9 µM; in the data set on HIV-1RF, 0.03 µM. The CC50 turned out to be 5.1 µM with CEM-SS cells and 16.9 µM in the data set with MT-4 cells. Moreover, in data set [3], the IC50 was 0.02 µM. Moreover, in [4], the “Rat Plasma tp1/2 (min ± SD)” value is recorded as 1.30 ± 0.09 min.
Turning to `COC(=O)CCC/C=C(\c1cccc(C#N)c1)c1cc(Cl)ccc1OC` [Compound 18, (E)-6-(5-Chloro-2-methoxyphenyl)-6-(3-cyanophenyl)-hex-5-enoic Acid Methyl Ester], the half-maximal effective concentration (EC50) in the data set with HIV-1 strain IIIB was 9.11 µM; with HIV-2 strain (ROD), > 67.6 µM; in the data set with HIV-1RF, 7 µM. Also, the CC50 in data set [1] is 16.3 µM; in data set [2], ≥ 45.1 µM. Besides, the 50% inhibitory concentration (IC50) in data set [3] amounted to 0.78 µM. In addition, in data set [4], the “Rat Plasma tp1/2 (min ± SD)” value is given as 0.42 ± 0.02 min.
As to `COC(=O)CCC/C=C(\c1cccc(C#N)c1)c1cc(Cl)c(OC)c(C(=O)OC)c1` [Compound 17, (E)-3-Chloro-5-[1-(3-cyanophenyl)-5-methoxycarbonyl-pent-1-enyl]-2-methoxybenzoic Acid Methyl Ester], the concentration giving a half-maximal response (EC50) in the data set on HIV-1 strain IIIB is 8.55 µM; with HIV-2 strain (ROD), > 223 µM; in the data set on HIV-1RF, 7.1 µM. The CC50 in [1] was determined as 20.2 µM; in [2], 213 µM. In addition, the IC50 in [3] was determined as 0.75 µM. Also, the “Rat Plasma tp1/2 (min ± SD)” value in data set [4] stood at 0.44 ± 0.05 min.

These data come from US20080300288A1, “Alkenyldiarylmethanes, Fused Analogs And Syntheses Thereof” (PURDUE RESEARCH FOUNDATION, priority 2005, published 2008).
